Reference: patent publication US8491891B2, “Human beta-glucuronidase mutants with elevated enzymatic activity under physiological conditions and method for identifying such” (Academia Sinica, priority 2008, dated 2013)

Columns and labels:
[1] = Intratumoral concentrations of CPT-11, SN-38 and SN-38G after CPT-11 treatment (SPE-HPLC)
Procedure: Tumors were collected 2, 8 and 24 h after CPT treatment, immediately dispersed in ice-cold acidic methanol (methanol: water: perchloric acid=20:20:1), and homogenized 60 sec on an Ultraturax tissue homogenizer at 20,000 rpm. The samples were clarified by centrifugation at 15,000 g for 5 min at 4° C. Supernatants were diluted with 0.1 M KH2PO4 and then separated by SPE-HPLC on a μBondapack column with 27% acetonitrile in 0.1 M potassium phosphate buffer pH=2.6. […] These three analytes were quantified by comparison with standard curves generated with analyte concentrations ranging from 2.0 pg to 200 ng.

EJ tumor xenografts = assay: Anti-tumor effect of CPT-11 on EJ xenografts; format: in vivo, Beige-SCID mice; conditions: EJ tumors, dose of 10 mg/kg, i.v. on two consecutive days
Procedure: (§1) Three to four month old Beige-SCID female mice were used in this study. The mice were maintained under SPF conditions and were fed a standard laboratory diet with free access to food and water, under artificial circadian rhythm. EJ or EJ/mβG cells were injected into the mice subcutaneously in their right flank to form tumor xenografts.

EJ/mβG tumor xenografts = assay: Anti-tumor effect of CPT-11 on EJ/mβG xenografts; format: in vivo, Beige-SCID mice; conditions: EJ/mβG tumors, dose of 10 mg/kg, i.v. on two consecutive days
Procedure: as §1

[2] = Serum concentrations of CPT-11, SN-38 and SN-38G after CPT-11 administration
[3] = tested on: EJ human bladder carcinoma cells; assay: Sensitivity of EJ cells to CPT-11, SN-38, SN-38G (3H-thymidine incorporation); conditions: read-out: IC50 (cytotoxicity), 24 h exposure, pH not stated
EJ/mβG cells = assay: Sensitivity of EJ/mβG cells to CPT-11, SN-38, SN-38G (3H-thymidine incorporation); conditions: read-out: IC50 (cytotoxicity); EJ/mβG cells, 24 h exposure, pH not stated
[4] = Relative activity of membrane-tethered human β-glucuronidase variants on 3T3 cells by flow cytometry (FL4/FL1); format: cell-based; conditions: membrane-tethered enzyme, pH 7.0, substrate ELF97 β-D-glucuronide
Procedure: The 3T3 cell libraries mentioned above were screened by FACS analysis for cells that express human β-glucuronidase variants with elevated enzymatic activity. 10^7 3T3 cells expressing membrane-bound human β-glucuronidase variants were washed and suspended in 0.4 ml BSA/HBSS (5.4 mM KCl, 0.3 mM Na2HPO4, 0.4 mM KH2PO4, 4.2 mM NaHCO3, 1.3 mM CaCl2, 0.5 mM MgCl2, 0.6 mM MgSO4, 137 mM NaCl, 5.6 mM D-glucose, pH 7.4) containing 0.5% bovine serum albumin (BSA) and 20 μg/ml 7G8-FITC for 30 min at 4° C. Cells were then washed and incubated with 25, 50 or 100 μM ELF97 β-D-glucuronide at defined pH values in 50 mM Bis-Tris, 25 mM glucose, 85.6 mM NaCl, 5.4 mM KCl, 0.6 mM MgSO4, 1.3 mM CaCl2) at 37° C. for 10 min. The cells were washed with ice-cold 0.5% BSA/HBSS and suspended in 0.5% BSA/HBSS containing 5 μg/ml propidium iodide (Sigma). Cells were then sorted on a FACSVantage DiVa (Becton, Dickinson and Company, Franklin Lakes, N.J.) equipped with an Enterprise IIC argon laser for dual excitation at 488 and 351-364 nm. Dead cells (propidium iodide positive, high FL3 fluorescence) were gated out before 7G8-FITC immunofluorescence was detected at excitation/emission wavelengths of 488/515 nm (FL1) and ELF97 was detected at excitation/emission wavelengths of 351/530 nm (FL4). […] The sorted cells were cultured for 4-10 days for sequential rounds of cell sorting or RNA extraction. Flow cytometer data was analyzed using Flowjo (Tree star, Ashland, Oreg.).
Independent 3T3 clones (5×10^7) in library EP2 mentioned above were immunofluorescence stained with 7G8-FITC and reacted with ELF97 β-D-glucuronide at pH 7.0. Sixteen individual cell clones were isolated after three rounds of sorting and the human β-glucuronidase genes were sequenced. […] Table 1 below lists amino acid substitutions in five exemplary variants and their relative enzymatic activities.

[5] = Kinetic values (Km, kcat) of soluble recombinant human β-glucuronidase and variants; format: biochemical
Procedure: Recombinant His-tagged wild-type human β-glucuronidase and its variants (soluble) were produced in and purified from stable 3T3 fibroblast lines, following the method described above also the method described in Wu et al., Biotechnol Appl Biochem 40:167-172 (2004).
The pH-dependent enzyme activities of the above-mentioned recombinant human beta-glucuronidase and variants were measured in triplicate with 0.1 mM ELF97 β-D-glucuronide at 37° C. for 30 minutes at a defined pH ranging from 3-10 in a beta-glucuronidase reaction buffer (50 mM Bis-Tris, 50 mM triethanol amine, 100 mM acetic acid, 0.1% BSA). The reaction was quenched by adding an equal volume of a stop buffer (2 M Tris-HCl, 0.8 M sodium bicarbonate, pH 8). The fluorescence of ELF97 was measured in a Gemini EM microplate spectrofluorometer (Molecular Device, Sunnyvale, Calif.) at excitation/emission wavelengths of 355/555 nm. Kinetic values for human beta-glucuronidase substrate hydrolysis were determined by diluting ELF97 β-D-glucuronide (2 mM) in a pH 4.5 or pH 7.0 beta-glucuronidase reaction buffer 1:1 with defined concentrations of human beta-glucuronidase in 200 μl. Fluorescence was immediately measured under thermal control at 37° C. for 8-10 min. The measurement was repeated using the same amount of enzyme at different substrate concentrations in an optimal range. The acquired readings were converted to product concentration based on preestablished standard curves. Double reciprocal plots were used to determine Km and kcat. Kinetic assays were performed at least 3 times and mean values were calculated. The stability of recombinant human beta-glucuronidase variants was carried out by measuring their enzymatic activity at time 0 and again after incubating 5 μg purified enzymes in PBS (containing 0.5 mg/ml BSA) at 37° C. for 14 days. The enzymatic activities of the human beta-glucuronidase variants were measured in triplicate with 0.5 mM 4-methylumbelliferyl β-D-glucuronide at 37° C. for 15 minutes at pH 7.0 in β-glucuronidase reaction buffer. The reaction was terminated by adding an equal volume of a stop buffer (1 M glycine, 0.5 M sodium bicarbonate, pH 11) and the fluorescence was measured at excitation/emission wavelengths of 355/460 nm in a microplate spectrofluorometer.

[6] = tested on: EJ human bladder cancer cells; assay: Prodrug activation of HAMG by enzyme, 3H-thymidine incorporation; format: cell-based; conditions: 10 μM HAMG
Procedure: (§2) The prodrug activation activity of the human beta-glucuronidase variants was determined as follows. EJ human bladder cancer cells were incubated with graded concentrations (see FIGS. 3B and 3C) of human β-glucuronidase variants in RPMI (pH 6.8) containing either 10 μM HAMG or 100 nM SN-38G for 24 hours. The cells were further incubated for 24 hours in fresh medium before incorporation of ^3H-thymidine into cellular DNA was measured following the procedure described below.
(§3) Purified recombinant human beta-glucuronidase and its variants with defined concentrations were mixed with 10 μM HAMG or 100 nM SN-38G and the mixture was added to 5000 EJ human bladder cancer cells in 200 μl complete medium at pH 6.8 for 24 h. The cells were washed and incubated in fresh medium for 24 h and then pulsed for 16 h with ^3H-thymidine (1 μCi/well). The cells were harvested and the radioactivity was measured in a TopCount Microplate Scintillation Counter (Packard, Meriden, Conn.). Results are expressed as percent inhibition of ^3H-thymidine incorporation into cellular DNA in comparison to untreated cells.

[7] = tested on: EJ human bladder cancer cells; assay: Prodrug activation of SN-38G by enzyme, 3H-thymidine incorporation; format: cell-based; conditions: 100 nM SN-38G
Procedure: as §2, §3

[8] = Beta-glucuronidase activity of fusion proteins at pH 7.0; format: biochemical; conditions: pH 7.0, 0.5 mM substrate, 30 minutes, 37° C.
Procedure: Next, the beta-glucuronidase activity of the fusion proteins was measured by adding 0.5 mM 4-methylumbelliferyl β-D-glucuronide in a beta-glucuronidase reaction buffer (50 mM Bis-Tris, 50 mM triethanol amine, 100 mM acetic acid, 100 ng/ml bovine serum albumin, pH 7.0) for 30 minutes at 37° C. The reaction was terminated by adding an equal volume of stop buffer (1 M glycine, 0.5 M sodium bicarbonate, pH 11). The fluorescence of 4-MU was measured at excitation/emission wavelengths of 355/460 nm in a Gemini EM microplate spectrofluorometer (Molecular Device, Sunnyvale, Calif.). […] See also FIG. 9.

[9] = 24 h after CPT-11 10 mg/kg i.v.

CCc1c2c(nc3ccc(OC(=O)N4CCC(N5CCCCC5)CC4)cc13)-c1cc3c(c(=O)n1C2)COC(=O)[C@]3(O)CC [CPT-11]
Intratumoral concentrations in EJ versus EJ/mβG tumors ([1]; 2, 8 and 24 h): identical
Concentration in EJ xenografts ([1]; 2 h after CPT-11 10 mg/kg i.v.): 1350 ± 200 ng drug/g tumor
Concentration in EJ/mβG xenografts ([1]; 2 h after CPT-11 10 mg/kg i.v.): 1500 ± 230 ng drug/g tumor
Concentration in EJ xenografts ([1]; 8 h after CPT-11 10 mg/kg i.v.): 87 ± 17 ng drug/g tumor
Concentration in EJ/mβG xenografts ([1]; 8 h after CPT-11 10 mg/kg i.v.): 77 ± 178 ng drug/g tumor
Concentration in EJ xenografts [1, 9]: 0.58 ± 0.09 ng drug/g tumor
Concentration in EJ/mβG xenografts [1, 9]: 0.63 ± 0.11 ng drug/g tumor
Delay of tumor growth (EJ tumor xenografts): did not significantly delay
Delay of tumor growth (EJ/mβG tumor xenografts): significantly delayed
Serum levels in mice bearing EJ versus EJ/mβG tumor ([2]; 2 h after CPT-11 administration): similar
Serum concentrations in mice bearing EJ versus EJ/mβG tumor ([2]; 8 h or 24 h after CPT-11 administration): no significant differences
IC50 [3]: ~2100 nM
IC50 (EJ/mβG cells): ~2100 nM

B1: S2: human beta-glucuronidase variant V159M, T545S, E595L, T599L, SEQ ID NO: 8 (protein)
chain: AAQPALQGGMLYPQESPSRECKELDGLWSFRADFSDNRRRGFEEQWYRRPLWESGPTVDMPVPSSFNDISQDWRLRHFVGWVWYEREVILPERWTQDLRTRVVLRIGSAHSYAIVWVNGVDTLEHEGGYLPFEADISNLVQMGPLPSRLRITIAINNTLTPTTLPPGTIQYLTDTSKYPKGYFVQNTYFDFFNYAGLQRSVLLYTTPTTYIDDITVTTSVEQDSGLVNYQISVKGSNLFKLEVRLLDAENKVVANGTGTQGQLKVPGVSLWWPYLMHERPAYLYSLEVQLTAQTSLGPVSDFYTLPVGIRTVAVTKSQFLINGKPFYFHGVNKHEDADIRGKGFDWPLLVKDFNLLRWLGANAFRTSHYPYAEEVMQMCDRYGIVVIDECPGVGLALPQFFNNVSLHHHMQVMEEVVRRDKNHPAVVMWSVANEPASHLESAGYYLKMVIAHTKSLDPSRPVTFVSNSNYAADKGAPYVDVICLNSYYSWYHDYGHLELIQLQLATQFENWYKKYQKPIIQSEYGAESIAGFHQDPPLMFTEEYQKSLLEQYHLGLDQKRRKYVVGELIWNFADFMTLQSPLRVLGNKKGIFTRQRQPKSAAFLLRERYWKIANETRYPHSVAKSQCLENSPFTSVD
modifications: Laboratory generated variant, S2, based upon the human beta-glucuronidase
Relative activity (FL4/FL1 normalized to wild-type human β-glucuronidase) [4]: 65
Km ([5]; pH 4.5, 37° C.): 8.1 ± 0.8 µM
kcat ([5]; pH 4.5, 37° C.): 107 ± 7 s⁻¹
Km ([5]; pH 7.0, 37° C.): 35 ± 3 µM
kcat ([5]; pH 7.0, 37° C.): 42 ± 4 s⁻¹
kcat/Km at pH 7.0, fold greater than kcat/Km of wild type at pH 4.5 ([5]; variant at pH 7.0 vs wild type at pH 4.5): about 2 fold
Fold more effective than wild type (HAMG activation) ([6]; pH 6.8): 9 fold
EC50 of enzyme for killing of EJ cells with HAMG ([6]; pH 6.8, 24 h): 2.7 µg/mL
Fold improvement in prodrug activation over wild type (SN-38G) ([7]; pH 6.8): 11 fold
EC50 of enzyme for killing of EJ cells with SN-38G ([7]; pH 6.8, 24 h): 8.4 ng/mL
Enzymatic activity compared with wild-type hβG [8]: significantly greater
